The record followed here is patent US12630536B2, “Cyanotriazine derivative, preparation method therefor, and application thereof” (Chengdu Fanxi Biopharma Co., LTD., priority 2020, dated 2026).

The target of experiment [1] is T1, THR-α ligand-binding domain (H6-THR-α) (Homo sapiens, UniProt P10827).
T1 construct: made in house; host or cells: Escherichia coli BL21 (DE3), vector pET28a
T1 sequence (P10827 148-410 isoform P10827-2 limits assumed): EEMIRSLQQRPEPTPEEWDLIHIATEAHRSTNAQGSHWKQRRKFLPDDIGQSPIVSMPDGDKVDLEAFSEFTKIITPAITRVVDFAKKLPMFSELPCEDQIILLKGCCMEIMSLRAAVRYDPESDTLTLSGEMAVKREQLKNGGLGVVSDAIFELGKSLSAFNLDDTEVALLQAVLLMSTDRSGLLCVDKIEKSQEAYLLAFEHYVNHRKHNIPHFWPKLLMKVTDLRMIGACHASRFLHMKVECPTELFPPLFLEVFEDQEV
T1 sequence (P19793 225-462 partner limits assumed): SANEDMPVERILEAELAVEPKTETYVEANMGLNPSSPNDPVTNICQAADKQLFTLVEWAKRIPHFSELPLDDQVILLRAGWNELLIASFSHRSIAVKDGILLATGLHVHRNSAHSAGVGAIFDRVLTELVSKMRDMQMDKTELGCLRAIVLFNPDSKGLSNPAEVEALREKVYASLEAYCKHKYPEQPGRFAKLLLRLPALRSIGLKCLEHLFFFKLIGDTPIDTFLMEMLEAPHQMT
T1 sequence (Q15596 679-703 partner limits assumed): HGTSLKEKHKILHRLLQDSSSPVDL
Briefly: Co-activated peptide recruitment test of THR-α/RXR/GRIP1 (TR_LBD agonist detection, HTRF). In kind it is biochemical. As for the experimental part: (§1) A ligand binding domain of THR-β (amino acids 148-410) (H6-THR-β) and a ligand binding domain of THR-α (amino acids 202-461) (H6-TRα) were cloned into E. coli expression vector pET28a (Novagen, Milwaukee, Wis.) containing N-terminal six His sequences. The resulting recombinant six-His-tagged protein was produced in E. coli BL21(DE3) cells. The cells were grown in Terrific Broth (self-used self-prepared Bacto tryptone (3.3%, w/v), Difico yeast extract (2.0%, w/v) and NaCl (0.5%, w/v) medium), incubated at 25° C. for 24 hours using a shake flask in 0.2 mM IPTG, harvested or dissolved with 5 volumes of buffer A (0.05 M Tris, 0.3 M NaCl, 1% W/V betaine, 0.01 M imidazole, 0.02 M b-mercaptoethanol, pH 8.0). Lysozyme (1.0 mg/ml, Sigma) and CompleteProtease Inhibitor Cocktail (Roche Diagnostics Gmbh) were added to the slurry and the solution was sonicated for one minute and 5 times at 4° C. The suspension was centrifuged at 127,300 RCF for 2 hours in a Ti45 Beckmann rotor and the supernatant was loaded onto an NI NTAAgarose (Quigen 30210) column. After washing with the buffer A, […] or H6-THR-α was eluted with the buffer A containing 0.25 M imidazole.
(§2) 30 microliters of H6-THR-β (50 nM) or H6-THR-α in 50 mM Hepes, pH 7.0, 1 mM DTT, 0.05% NP40 and 0.2 mg/ml BSA (binding buffer) were mixed with an equal volume of EE-RxRα (50 nM) in the binding buffer. […] Aliquot ([…]) was transferred to a 384-well black microtiter plate. HTRF signal was read on a Victor5 reader (PerkinElmer Life and Analytical Sciences). EC50 was calculated.
(§3) Gene clones expressing a ligand-binding domain (amino acids 148-410) of THR-β (H6-THR-β) and a ligand-binding domain (amino acids 202-461) of THR-α (H6-THR-α) were inserted into an Escherichia coli expression vector pET28a, and the expression vector contained one N-terminal 6-His sequence. The expression vector was introduced into an Escherichia coli BL21 (DE3) strain to produce a recombinant protein with a His tag. […] After finishing culturing, a bacterium in culture was collected, and the collected bacterium was resuspended with a lysis solution (0.05 M Tris, 0.3 M NaCl, 1% W/V betaine, 0.01 M imidazole, 0.02 M β-mercaptoethanol, and pH 8.0) with a volume 5 times that of the bacterium, and lysozyme and protease inhibitors were added at the same time, the treated bacteria was subjected to ultrasonic lysis (5 times per minute) in ice bath (4° C.). A lysed suspension was centrifuged at 127300 RCF for 2 hours, a supernatant was loaded on a NI_NTA agarose (Quigen 30210) column, and after washing with a buffer A, an H6-TRβ or H6-TRα protein was eluted with the buffer A containing 0.25 M imidazole.
(§4) A human retinol X receptor (amino acid 225-462) (RxRα) was subjected to engineering modification, so that an N-terminal of the human retinol X receptor had His6 and EE(EFMPME) tags, and then the human retinol X receptor was cloned into a pACYC vector, and produced a His6 EEtagged protein in Escherichia coli. IPTG with a final concentration of 0.1 mM was added into the culture medium for induction, and cultured in a shaking flask at 18° C. for 18 hours. After finishing culturing, a bacterium in culture was collected, and the collected bacterium was re-suspended with a lysis solution (0.05 M Tris, 0.3 M NaCl, 1% W/V betaine, 0.01 M imidazole, 0.02 β-mercaptoethanol, and pH 8.0) with a volume 5 times that of the bacterium, lysozyme and protease inhibitors were added at the same time, and stirred at 4° C. for 30 minutes. Then, a suspension was subjected to an ultrasonic treatment at 4° C. for 30 seconds for 5 times. The suspension was collected, and centrifuged at 12000 RCF for 20 minutes. A supernatant was collected, and the supernatant was filtered with a membrane with a pore size of 0.45 μm, and then added with 0.5% NP-40.

Experiment [2] concerns the target T2, THR-β ligand-binding domain (H6-THR-β) (Homo sapiens, UniProt P10828).
T2 construct: made in house; host or cells: Escherichia coli BL21 (DE3), vector pET28a
T2 sequence (P10828 217-461 limits assumed): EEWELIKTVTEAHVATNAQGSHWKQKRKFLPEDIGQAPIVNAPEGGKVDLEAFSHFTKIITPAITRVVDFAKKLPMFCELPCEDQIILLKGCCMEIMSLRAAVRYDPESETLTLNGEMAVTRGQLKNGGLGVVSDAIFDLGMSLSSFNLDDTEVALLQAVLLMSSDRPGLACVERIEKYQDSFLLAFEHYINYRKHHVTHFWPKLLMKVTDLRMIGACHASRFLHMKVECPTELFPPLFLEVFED
T2 sequence (P19793 225-462 partner limits assumed): T1 sequence (P19793 225-462 partner limits assumed)
T2 sequence (Q15596 679-703 partner limits assumed): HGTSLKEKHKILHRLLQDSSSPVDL
Briefly: Co-activated peptide recruitment test of THR-β/RXR/GRIP1 (TR_LBD agonist detection, HTRF). In kind it is biochemical. As for the experimental part:
as §1, §2, §3, §4
On the technique in general: TR-FRET usually uses a lanthanide donor and a delayed reading to cut background.

Take `Cn1cnc2ccc(Oc3c(Br)cc(-n4nc(C#N)c(=O)[nH]c4=O)cc3Br)cc21` [Compound 1, 2-(3,5-dibromo-4-((1-methyl-1H-benzo[d]imidazol-6-yl)oxy)phenyl)-3,5-dioxo-2,3,4,5-tetra hydro-1,2,4-triazine-6-carbonitrile]: the EC50 in experiment [1] (Detection of TR_LBD agonist, read-out: TR_α_EC50) is 35.3 nM; in experiment [2] (Detection of TR_LBD agonist, read-out: TR_beta_EC50), 4.96 nM. Further, the “Maximum activity ratio (A520/A495)” value in experiment [1] (TR_LBD agonist, TR_α) is 3.83; in experiment [2] (TR_LBD agonist, TR_β), 4.02. Also, the “Measurement of cpd/T3 (maximum ratio)” value in experiment [1] (TR_LBD agonist, TR_α, maximum relative to T3) came out at 71.1%; in experiment [2] (TR_LBD agonist, TR_β, maximum relative to T3), 73.4%. Moreover, the α/β in experiment [2] (TR_LBD agonist, ratio TR_α EC50 / TR_β EC50) was determined as 7.13.
